According to PubChem BioAssay AID1259407 (Chemical Carcinogenesis Research Information System (CCRIS), 2018):
Calls of active or inactive are those of the source. No rule for the calls is given here.

System: CCRIS mutagenicity, Ames/micronucleus/aberration tests
Assay: CCRIS mutagenicity studies
[1] = Test System: AMES SALMONELLA TYPHIMURIUM, Strain/Indicator: TA97, Metabolic Activation: HAMSTER, LIVER, S-9, AROCLOR 1254 (10 OR 30%), Method: PREINCUBATION
[2] = Test System: AMES SALMONELLA TYPHIMURIUM, Strain/Indicator: TA97, Metabolic Activation: NONE, Method: PREINCUBATION
[3] = Test System: AMES SALMONELLA TYPHIMURIUM, Strain/Indicator: TA98, Metabolic Activation: HAMSTER, LIVER, S-9, AROCLOR 1254 (10 OR 30%), Method: PREINCUBATION
[4] = Test System: AMES SALMONELLA TYPHIMURIUM, Strain/Indicator: TA98, Metabolic Activation: NONE, Method: PREINCUBATION
[5] = Test System: AMES SALMONELLA TYPHIMURIUM, Strain/Indicator: TA100, Metabolic Activation: HAMSTER, LIVER, S-9, AROCLOR 1254 (10 OR 30%), Method: PREINCUBATION
[6] = Test System: AMES SALMONELLA TYPHIMURIUM, Strain/Indicator: TA100, Metabolic Activation: NONE, Method: PREINCUBATION
[7] = Test System: AMES SALMONELLA TYPHIMURIUM, Strain/Indicator: TA1535, Metabolic Activation: HAMSTER, LIVER, S-9, AROCLOR 1254 (10 OR 30%), Method: PREINCUBATION
[8] = Test System: AMES SALMONELLA TYPHIMURIUM, Strain/Indicator: TA1535, Metabolic Activation: NONE, Method: PREINCUBATION
[9] = Test System: AMES SALMONELLA TYPHIMURIUM, Strain/Indicator: TA98, Metabolic Activation: RAT, LIVER, S-9, AROCLOR 1254 (30%), Method: PREINCUBATION
[10] = Test System: AMES SALMONELLA TYPHIMURIUM, Strain/Indicator: TA100, Metabolic Activation: RAT, LIVER, S-9, AROCLOR 1254 (30%), Method: PREINCUBATION

CCCCCCCCCCCCCCCCN
mutagenic call [1]: inactive; negative | mutagenic call [2]: inactive; negative | mutagenic call (Test System: AMES SALMONELLA TYPHIMURIUM, Strain/Indicator: TA97, Metabolic Activation: RAT, LIVER, S-9, AROCLOR 1254 (10 OR 30%), Method: PREINCUBATION): inactive; negative | mutagenic call [3]: inactive; negative | mutagenic call [4]: inactive; negative | mutagenic call (Test System: AMES SALMONELLA TYPHIMURIUM, Strain/Indicator: TA98, Metabolic Activation: RAT, LIVER, S-9, AROCLOR 1254 (10 OR 30%), Method: PREINCUBATION): inactive; negative | mutagenic call [5]: inactive; negative | mutagenic call [6]: inactive; negative | mutagenic call (Test System: AMES SALMONELLA TYPHIMURIUM, Strain/Indicator: TA100, Metabolic Activation: RAT, LIVER, S-9, AROCLOR 1254 (10 OR 30%), Method: PREINCUBATION): inactive; negative | mutagenic call [7]: inactive; negative | mutagenic call [8]: inactive; negative | mutagenic call (Test System: AMES SALMONELLA TYPHIMURIUM, Strain/Indicator: TA1535, Metabolic Activation: RAT, LIVER, S-9, AROCLOR 1254 (10 OR 30%), Method: PREINCUBATION): inactive; negative

CC(C)(O)C#N
mutagenic call [1]: inactive; negative | mutagenic call [2]: inactive; negative | mutagenic call (Test System: AMES SALMONELLA TYPHIMURIUM, Strain/Indicator: TA97, Metabolic Activation: RAT, LIVER, S-9, AROCLOR 1254 (10%), Method: PREINCUBATION): inactive; negative | mutagenic call (Test System: AMES SALMONELLA TYPHIMURIUM, Strain/Indicator: TA97, Metabolic Activation: RAT, LIVER, S-9, AROCLOR 1254 (30%), Method: PREINCUBATION): inactive; negative | mutagenic call [3]: inactive; negative | mutagenic call [4]: inactive; negative | mutagenic call (Test System: AMES SALMONELLA TYPHIMURIUM, Strain/Indicator: TA98, Metabolic Activation: RAT, LIVER, S-9, AROCLOR 1254 (10%), Method: PREINCUBATION): inactive; negative | mutagenic call [9]: inactive; negative | mutagenic call [5]: inactive; negative | mutagenic call [6]: inactive; negative | mutagenic call (Test System: AMES SALMONELLA TYPHIMURIUM, Strain/Indicator: TA100, Metabolic Activation: RAT, LIVER, S-9, AROCLOR 1254 (10%), Method: PREINCUBATION): inactive; negative | mutagenic call [10]: inactive; negative | mutagenic call [7]: inactive; negative | mutagenic call [8]: inactive; negative | mutagenic call (Test System: AMES SALMONELLA TYPHIMURIUM, Strain/Indicator: TA1535, Metabolic Activation: RAT, LIVER, S-9, AROCLOR 1254 (10%), Method: PREINCUBATION): inactive; negative | mutagenic call (Test System: AMES SALMONELLA TYPHIMURIUM, Strain/Indicator: TA1535, Metabolic Activation: RAT, LIVER, S-9, AROCLOR 1254 (30%), Method: PREINCUBATION): inactive; negative

Cc1ccc2c(c1)-c1cc3ccccc3c3cc4ccccc4c-2c13
mutagenic call (Test System: AMES SALMONELLA TYPHIMURIUM, Strain/Indicator: TA100, Metabolic Activation: RAT, LIVER, S-9, 3-METHYLCHOLANTHRENE, Method: STANDARD PLATE): active; positive

O=NN1CCOCC1
mutagenic call (End Point: IN VITRO CHROMOSOMAL ABERRATIONS, Test System: HEPG2 HEPATOMA (HUMAN), Metabolic Activation: NONE): active; positive | mutagenic call (End Point: IN VITRO CHROMOSOMAL ABERRATIONS, Test System: V79 CELLS, Metabolic Activation: NONE): active; positive | mutagenic call (End Point: IN VITRO CHROMOSOMAL ABERRATIONS, Test System: VH10 CELLS (HUMAN), Metabolic Activation: NONE): inactive; negative | mutagenic call (Test System: AMES SALMONELLA TYPHIMURIUM, Strain/Indicator: TA98, Metabolic Activation: HAMSTER, LIVER, S-9, AROCLOR 1254 (30%), Method: PREINCUBATION): inactive; negative | mutagenic call [4]: inactive; negative | mutagenic call [9]: inactive; negative | mutagenic call (Test System: AMES SALMONELLA TYPHIMURIUM, Strain/Indicator: TA98, Metabolic Activation: S-9, Method: PREINCUBATION): inactive; negative | mutagenic call (Test System: AMES SALMONELLA TYPHIMURIUM, Strain/Indicator: TA100, Metabolic Activation: HAMSTER, LIVER, S-9, AROCLOR 1254 (30%), Method: PREINCUBATION): active; positive | mutagenic call [6]: inactive; negative | mutagenic call [10]: active; positive | mutagenic call (Test System: AMES SALMONELLA TYPHIMURIUM, Strain/Indicator: TA100, Metabolic Activation: RAT, LIVER, S-9, AROCLOR 1254, Method: PREINCUBATION): active; positive | mutagenic call (Test System: AMES SALMONELLA TYPHIMURIUM, Strain/Indicator: TA100, Metabolic Activation: S-9, Method: PREINCUBATION): active; positive | mutagenic call (Test System: AMES SALMONELLA TYPHIMURIUM, Strain/Indicator: TA100, Metabolic Activation: TOBACCO CELLS, Method: PREINCUBATION): inactive; negative | mutagenic call (Test System: AMES SALMONELLA TYPHIMURIUM, Strain/Indicator: TA104, Metabolic Activation: RAT, LIVER, S-9, AROCLOR 1254, Method: PREINCUBATION): active; positive | mutagenic call (Test System: AMES SALMONELLA TYPHIMURIUM, Strain/Indicator: TA1530, Metabolic Activation: RAT, LIVER, S-9, Method: STANDARD PLATE): active; positive | mutagenic call [8]: inactive; negative | mutagenic call (Test System: AMES SALMONELLA TYPHIMURIUM, Strain/Indicator: TA1535, Metabolic Activation: RAT, LIVER, HEPATOCYTES, Method: PREINCUBATION): active; positive | mutagenic call (Test System: AMES SALMONELLA TYPHIMURIUM, Strain/Indicator: TA1535, Metabolic Activation: RAT, LIVER, S-9, AROCLOR 1254, Method: PREINCUBATION): active; positive | mutagenic call (Test System: AMES SALMONELLA TYPHIMURIUM, Strain/Indicator: TA1535, Metabolic Activation: RAT, LIVER, S-9, AROCLOR, Method: PREINCUBATION): active; positive | mutagenic call (Test System: AMES SALMONELLA TYPHIMURIUM, Strain/Indicator: TA1535, Metabolic Activation: RAT, LIVER, S-9, SODIUM PHENOBARBITONE, Method: PREINCUBATION): active; positive | mutagenic call (Test System: AMES SALMONELLA TYPHIMURIUM, Strain/Indicator: TA1535, Metabolic Activation: RAT, LIVER, S-9, Method: PREINCUBATION): active; positive | mutagenic call (Test System: AMES SALMONELLA TYPHIMURIUM, Strain/Indicator: TA1975, Metabolic Activation: RAT, LIVER, S-9, AROCLOR 1254, Method: PREINCUBATION): active; positive | mutagenic call (Test System: CHINESE HAMSTER V-79, Strain/Indicator: V-79/8-AZAGUANINE, Metabolic Activation: RAT, LIVER, S-15, PHENOBARBITAL, Method: STANDARD PLATE): active; positive | mutagenic call (Test System: UDS RODENT HEPATOCYTES, Strain/Indicator: THY INCORP (NON-S-PHASE), Method: AUTORADIOGRAPHY): active; positive
